Converted amounts (≈) assume the structure as drawn.
Key:
Assay in all cases: minimal inhibitory concentration, two-fold agar dilution
Type in all cases: cell-based
[1] = system: Morganella morganii ATCC 8076h; conditions: ATCC8076H, Muller-Hinton agar, 37°C, 20 hours, read-out: MIC values against the standard strains
Experimental: (§1) These MIC values were taken by employing a two-fold dilution method: that is, two-fold serial dilutions of each of the test compounds were made and dispersed in a Muller-Hinton agar medium; 2µl of the standard test strain which had the 10⁷ CFU(Colony Forming Unit) per ml was inoculated on the medium; and these were incubated at 37°C for 20 hours.

[2] = system: Acinetobacter calcoaceticus ATCC 15473; conditions: ATCC15473, Muller-Hinton agar, 37°C, 20 hours, read-out: MIC values against the standard strains
Experimental: as §1

[3] = system: Streptococcus faecalis ATCC 29212; conditions: Enterococcus faecalis, ATCC29212; Muller-Hinton agar; 37°C; 20 hours; read-out: MIC values against the standard strains
Experimental: as §1

[4] = system: Salmonella typhimurium ATCC 14028; conditions: Salmonella enterica; Muller-Hinton agar; 37°C; 20 hours; read-out: MIC values against the standard strains
Experimental: as §1

[5] = system: Providencia rettgeri ATCC 9250; conditions: ATCC9250, Muller-Hinton agar, 37°C, 20 hours, read-out: MIC values against the standard strains
Experimental: as §1

[6] = system: Bacillus megaterium ATCC 9885; conditions: Priestia megaterium, ATCC9885; Muller-Hinton agar; 37°C; 20 hours; read-out: MIC values against the standard strains
Experimental: as §1

[7] = system: Micrococcus luteus ATCC 9341; conditions: ATCC9341, Muller-Hinton agar, 37°C, 20 hours, read-out: MIC values against the standard strains
Experimental: as §1

[8] = system: Shigella sonnei ATCC 11060; conditions: ATCC11060, Muller-Hinton agar, 37°C, 20 hours, read-out: MIC values against the standard strains
Experimental: as §1

[9] = system: Proteus vulgaris ATCC 6059; conditions: ATCC6059, Muller-Hinton agar, 37°C, 20 hours, read-out: MIC values against the standard strains
Experimental: as §1

[10] = system: Escherichia coli ATCC 10536; conditions: ATCC10536, Muller-Hinton agar, 37°C, 20 hours, read-out: MIC values against the standard strains
Experimental: as §1

[11] = system: Bacillus cereus ATCC 11778; conditions: ATCC11778, Muller-Hinton agar, 37°C, 20 hours, read-out: MIC values against the standard strains
Experimental: as §1

[12] = system: Staphylococcus aureus ATCC 6538p; conditions: ATCC6538P, Muller-Hinton agar, 37°C, 20 hours, read-out: MIC values against the standard strains
Experimental: as §1

[13] = system: Enterobacter cloacae ATCC 27508; conditions: ATCC27508, Muller-Hinton agar, 37°C, 20 hours, read-out: MIC values against the standard strains
Experimental: as §1

[14] = system: Pseudomonas aeruginosa ATCC 10145; conditions: ATCC10145, Muller-Hinton agar, 37°C, 20 hours, read-out: MIC values against the standard strains
Experimental: as §1

[15] = system: Shigella flexneri ATCC 11836; conditions: ATCC11836, Muller-Hinton agar, 37°C, 20 hours, read-out: MIC values against the standard strains
Experimental: as §1

[16] = system: Proteus mirabilis ATCC 25933; conditions: ATCC25933, Muller-Hinton agar, 37°C, 20 hours, read-out: MIC values against the standard strains
Experimental: as §1

[17] = system: Pseudomonas aeruginosa ATCC 25619; conditions: ATCC25619, Muller-Hinton agar, 37°C, 20 hours, read-out: MIC values against the standard strains
Experimental: as §1

[18] = system: Enterobacter aerogenes ATCC 29751; conditions: Klebsiella aerogenes, ATCC29751; Muller-Hinton agar; 37°C; 20 hours; read-out: MIC values against the standard strains
Experimental: as §1

[19] = system: Pseudomonas aeruginosa ATCC 27853; conditions: ATCC27853, Muller-Hinton agar, 37°C, 20 hours, read-out: MIC values against the standard strains
Experimental: as §1

[20] = system: Staphylococcus aureus ATCC 10537; conditions: ATCC10537, Muller-Hinton agar, 37°C, 20 hours, read-out: MIC values against the standard strains
Experimental: as §1

[21] = system: Staphylococcus epidermidis ATCC 12228; conditions: ATCC12228, Muller-Hinton agar, 37°C, 20 hours, read-out: MIC values against the standard strains
Experimental: as §1

[22] = system: Klebsiella pneumoniae ATCC 10031; conditions: ATCC10031, Muller-Hinton agar, 37°C, 20 hours, read-out: MIC values against the standard strains
Experimental: as §1

[23] = system: Citrobacter freundii ATCC 8090; conditions: ATCC8090, Muller-Hinton agar, 37°C, 20 hours, read-out: MIC values against the standard strains
Experimental: as §1

[24] = system: Serratia marcescens ATCC 27117; conditions: ATCC27117, Muller-Hinton agar, 37°C, 20 hours, read-out: MIC values against the standard strains
Experimental: as §1

[25] = system: Escherichia coli ATCC 25922; conditions: ATCC25922, Muller-Hinton agar, 37°C, 20 hours, read-out: MIC values against the standard strains
Experimental: as §1

Compound | MIC [1] | MIC [2] | MIC [3] | MIC [4] | MIC [5] | MIC [6] | MIC [7] | MIC [8] | MIC [9] | MIC [10] | MIC [11] | MIC [12] | MIC [13] | MIC [14] | MIC [15] | MIC [16] | MIC [17] | MIC [18] | MIC [19] | MIC [20] | also measured
CCO/N=C(\C(=O)N[C@@H]1C(=O)N2C(C(=O)[O-])=C(CSc3nc(N)cc(NC)[n+]3C)CS[C@H]12)c1csc(N)n1 [Example 36, 7-[(Z)-2-(2-aminothiazol-4-yl)-2-(ethoxyimino)acetamido]-3-(4-amino-6-methylamino-1-methylpyrimidinium-2-yl)thiomethyl-3-cephem-4-carboxylate] | 0.016 µg/mL (≈ 0.0276 µM) | 4 µg/mL (≈ 6.9 µM) | 32 µg/mL (≈ 55.2 µM) | 0.13 µg/mL (≈ 0.224 µM) | ≤ 0.008 µg/mL | 0.063 µg/mL (≈ 0.109 µM) | ≤ 0.008 µg/mL | 0.063 µg/mL (≈ 0.109 µM) | 0.25 µg/mL (≈ 0.431 µM) | 0.031 µg/mL (≈ 0.0535 µM) | 32 µg/mL (≈ 55.2 µM) | 0.25 µg/mL (≈ 0.431 µM) | ≤ 8 ng/mL | 8 µg/mL (≈ 13.8 µM) | ≤ 0.008 µg/mL | 0.25 µg/mL (≈ 0.431 µM) | 0.5 µg/mL (≈ 0.863 µM) | 0.13 µg/mL (≈ 0.224 µM) | 4 µg/mL (≈ 6.9 µM) | 0.13 µg/mL (≈ 0.224 µM) | MIC [21]: 0.031 µg/mL (≈ 0.0535 µM); MIC [22]: ≤ 0.008 µg/mL; MIC [23]: 0.016 µg/mL (≈ 0.0276 µM); MIC [24]: 0.13 µg/mL (≈ 0.224 µM); MIC [25]: 0.063 µg/mL (≈ 0.109 µM)
CCO/N=C(\C(=O)N[C@@H]1C(=O)N2C(C(=O)[O-])=C(CSc3nc(N)cc[n+]3N)CS[C@H]12)c1csc(N)n1 [Example 42, 7-[(Z)-2-(2-aminothiazol-4-yl)-2-(ethoxyimino)acetamido]-3-(1,4-diaminopyrimidinium-2-yl)thiomethyl-3-cephem-4-carboxylate] | 0.25 µg/mL (≈ 0.453 µM) | 4 µg/mL (≈ 7.25 µM) | 8 µg/mL (≈ 14.5 µM) | 0.5 µg/mL (≈ 0.906 µM) | 0.063 µg/mL (≈ 0.114 µM) | 0.063 µg/mL (≈ 0.114 µM) | ≤ 0.008 µg/mL | 0.25 µg/mL (≈ 0.453 µM) | 1 µg/mL (≈ 1.81 µM) | 0.031 µg/mL (≈ 0.0562 µM) | 32 µg/mL (≈ 58 µM) | 0.13 µg/mL (≈ 0.236 µM) | ≤ 8 ng/mL | 8 µg/mL (≈ 14.5 µM) | 0.25 µg/mL (≈ 0.453 µM) | 1 µg/mL (≈ 1.81 µM) | 0.5 µg/mL (≈ 0.906 µM) | 0.13 µg/mL (≈ 0.236 µM) | 4 µg/mL (≈ 7.25 µM) | 0.13 µg/mL (≈ 0.236 µM) | MIC [21]: 0.031 µg/mL (≈ 0.0562 µM); MIC [22]: ≤ 0.008 µg/mL; MIC [23]: 0.063 µg/mL (≈ 0.114 µM); MIC [24]: 0.5 µg/mL (≈ 0.906 µM); MIC [25]: 0.031 µg/mL (≈ 0.0562 µM)
CC(C)(O/N=C(\C(=O)N[C@@H]1C(=O)N2C(C(=O)[O-])=C(CSc3nc(N)cc[n+]3N)CS[C@H]12)c1csc(N)n1)C(=O)O [Example 43] | ≤ 0.008 µg/mL | 2 µg/mL (≈ 3.28 µM) | > 128 µg/mL | 0.13 µg/mL (≈ 0.213 µM) | ≤ 0.008 µg/mL | 0.5 µg/mL (≈ 0.82 µM) | 0.5 µg/mL (≈ 0.82 µM) | 0.063 µg/mL (≈ 0.103 µM) | 0.031 µg/mL (≈ 0.0508 µM) | 0.063 µg/mL (≈ 0.103 µM) | 128 µg/mL (≈ 210 µM) | 8 µg/mL (≈ 13.1 µM) | ≤ 8 ng/mL | 2 µg/mL (≈ 3.28 µM) | 0.031 µg/mL (≈ 0.0508 µM) | 0.031 µg/mL (≈ 0.0508 µM) | 1 µg/mL (≈ 1.64 µM) | 0.5 µg/mL (≈ 0.82 µM) | 1 µg/mL (≈ 1.64 µM) | 2 µg/mL (≈ 3.28 µM) | MIC [21]: 2 µg/mL (≈ 3.28 µM); MIC [22]: 0.063 µg/mL (≈ 0.103 µM); MIC [23]: 0.063 µg/mL (≈ 0.103 µM); MIC [24]: 0.13 µg/mL (≈ 0.213 µM); MIC [25]: 0.063 µg/mL (≈ 0.103 µM)

— patent publication EP0584797A2, “Novel cephalosporin compounds and processes for the preparation thereof” (LUCKY LTD., priority 1992, dated 1994)
